The record followed here is patent US11319318B2, “Pyridinones and isoquinolinones as inhibitors of the bromodomain BRD9” (Boehringer Ingelheim International GmbH, priority 2015, dated 2022).

Each structure is given as a SMILES string.

The target in the test is T1, bromodomain of BRD9 (GST-BRD9 aa 130-259) / H3 K9/14/18/23Ac(1-28) peptide (Homo sapiens, UniProt Q9H8M2).
T1 construct: The protein corresponding to amino acids 130-259 that contains the bromodomain of BRD9; made in house; host or cells: E. coli
T1 sequence (Q9H8M2 130-259): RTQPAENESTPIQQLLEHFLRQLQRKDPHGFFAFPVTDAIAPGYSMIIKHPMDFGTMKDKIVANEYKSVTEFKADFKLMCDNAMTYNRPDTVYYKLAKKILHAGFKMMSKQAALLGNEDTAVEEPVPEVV
Nature of the test: BRD9-H3 tetra-acetylated Peptide Inhibition AlphaScreen. It counts as binding.
Excerpt: Biological Methods BRD9-H3 tetra-acetylated Peptide Inhibition AlphaScreen
This assay is used to identify compounds which inhibit the interaction of the bromodomain of BRD9 with a tetra-acetylated peptide based on the sequence of histone H3 (H3 K9/14/18/23Ac (1-28)).
AlphaScreen Beads (Perkin Elmer):
AlphaLISA Glutathione Acceptor Beads
AlphaScreen Streptavidin Donor Beads
The assay is done in a darkened room below 100 Lux.
Compounds are dispensed onto assay plates using an Access Labcyte Workstation with the Labcyte Echo 550 from a DMSO solution. For the chosen highest concentration of 100 μM, 150 nl of compound solution are transferred from a 10 mM DMSO solution. […] DMSO is added such that every well has a total of 150 nl of DMSO.
After 60 min at room temperature the signal is measured in a PerkinElmer Envision HTS Multilabel Reader using the AlphaScreen specifications from PerkinElmer.
Each plate contains negative controls where biotinylated H3 K9/14/18/23Ac(1-28) peptide and GST-BRD9 are left out and replaced by assay buffer. Negative control values are entered as low basis value when using the software GraphPad Prism for calculations.
As to `Cc1cc(-c2ccc([C@@H](C)N3CCCC3)cc2)cn(C)c1=O` [Compound I-1, 1,3-Dimethyl-5-[4-((R)-1-pyrrolidin-1-yl-ethyl)-phenyl]-1H-pyridin-2-one], 105 nM corresponded to half-maximal inhibition (IC50). Turning to `Cc1cc(-c2ccc([C@H](C)N3CCCC3)cc2)cn(C)c1=O` [Compound I-2, 1,3-dimethyl-5-[4-((S)-1-pyrrolidin-1-yl-ethyl)-phenyl]-1H-pyridin-2-one], the IC50 – broadly, the concentration that gives 50% inhibition – is 145 nM. In the case of `Cc1cc(-c2ccc([C@H](C)N3CCCCC3)cc2)cn(C)c1=O` [Compound I-3], the concentration for half-maximal inhibition (IC50) came out at 157 nM. In turn, `Cc1cc(-c2ccc([C@@H](C)N3CCCCC3)cc2)cn(C)c1=O` [Compound I-4] yielded a 50% inhibitory concentration (IC50) of 172 nM.

In turn, `Cc1cc(-c2ccc(C(C)N3CCCC3)cc2)cn(C)c1=O` (stereo not shown) [Compound I-5] yielded a 50% inhibitory concentration (IC50) of 137 nM. On to `Cc1cc(-c2ccc(C(C)N3CCCCC3)cc2)cn(C)c1=O` (stereo not shown) [Compound I-6], for which the IC50 stood at 318 nM. Take `Cc1cc(-c2ccc(S(=O)(=O)NCCN(C)C)c(OC(F)(F)F)c2)cn(C)c1=O` [Compound I-7]: half-maximal inhibition (IC50) required 326 nM. With `Cc1cc(-c2ccc(S(=O)(=O)N(C)C)cc2)cn(C)c1=O` [Compound I-8], the concentration for half-maximal inhibition (IC50) came out at 976 nM.

In turn, `Cc1cc(-c2ccc(C(C)N3CCOCC3)cc2)cn(C)c1=O` (stereo not shown) [Compound I-10] had a half-inhibitory concentration (IC50) of 1080 nM.

Turning to `Cc1cc(-c2ccc(C(C)N(C)C)cc2)cn(C)c1=O` (stereo not shown) [Compound I-11], 1430 nM corresponded to half-maximal inhibition (IC50). For `CNS(=O)(=O)c1ccc(-c2cc(C)c(=O)n(C)c2)cc1` [Compound I-12], the midpoint of inhibition, the IC50, lay at 1550 nM.

As to `Cc1cc(-c2ccc(S(=O)(=O)C(C)C)cc2)cn(C)c1=O` [Compound I-13], the IC50 is 1590 nM. In the case of `Cc1cc(-c2cccc(CN(C)C)c2)cn(C)c1=O` [Compound I-17] it was 2540 nM. For `Cc1cc(-c2ccc(CN3CCN(C)CC3)cc2)c(C)n(C)c1=O` [Compound I-21], the IC50 is 1690 nM.

Consider `Cc1c(-c2ccc(C(=O)N3CCNCC3)cc2)cc(I)c(=O)n1C` [Compound I-22], for which the half-inhibitory concentration (IC50) turned out to be 235 nM.

With `Cc1cc(-c2cccc(NS(C)(=O)=O)c2)cn(C)c1=O` [Compound I-31, N-[3-(1,5-Dimethyl-6-oxo-1,6-dihydro-pyridin-3-yl)-phenyl]-methanesulfonamide], inhibition was half-maximal at 1220 nM (IC50). This IC50 is about 5.2-fold higher than that of the compound before.

Consider `COc1cc(-c2cc(C)c(=O)n(C)c2)ccc1CN1CC(O)C1` [Compound I-47, 5-[4-(3-Hydroxy-azetidin-1-ylmethyl)-3-methoxy-phenyl]-1,3-dimethyl-1H-pyridin-2-one], for which inhibition was half-maximal at 52 nM (IC50). Compound `Cc1cc(-c2ccc3c(c2)CNC3)cn(C)c1=O` [Compound I-49, 5-(2,3-dihydro-1H-isoindol-5-yl)-1,3-dimethyl-1H-pyridin-2-one] had an IC50 of 65 nM. With `COc1cc(-c2cc(C)c(=O)n(C)c2)ccc1CN1CC(OC)C1` [Compound I-50], the IC50 was determined as 74 nM. With `COc1cc(-c2cc(C)c(=O)n(C)c2)ccc1CN1C[C@@H]2CC1CN2C` [Compound I-51], 78 nM corresponded to half-maximal inhibition (IC50). Consider `COc1cc(-c2cc(C)c(=O)n(C)c2)cc(OC)c1CN1CCNCC1` [Compound I-52], for which it took 87 nM to reach half-maximal inhibition (IC50). The IC50 values of the last two compounds are within 1.5-fold of each other. As for `COc1cc(-c2cc(C)c(=O)n(C)c2)ccc1C1(N(C)C)CC1` [Compound I-53], the 50% inhibitory concentration (IC50) is 97 nM. Compound `COc1cc(-c2cc(C)c(=O)n(C)c2)ccc1CN1C[C@@H]2CC1CN2` [Compound I-54] registered an IC50 of 121 nM. Turning to `COc1cc(-c2cc(C)c(=O)n(C)c2)c(OC)cc1CN1CC(O)C1` [Compound I-55], the IC50 was 124 nM. The IC50 values of the last two compounds are within 1.5-fold of each other. `COc1cc(S(=O)(=O)N2CC(O)C2)c(OC)cc1-c1cc(C)c(=O)n(C)c1` [Compound I-56] displayed a half-inhibitory concentration (IC50) of 131 nM. Regarding `COc1cc(S(=O)(=O)NCCN(C)C)c(OC)cc1-c1cc(C)c(=O)n(C)c1` [Compound I-57], the IC50 was 132 nM. In the case of `Cc1cc(-c2ccc(C3(N(C)C)CC3)cc2)cn(C)c1=O` [Compound I-58] it was 137 nM; in that of `COCc1c(OC)cc(-c2cc(C)c(=O)n(C)c2)cc1OC` [Compound I-59], 142 nM. `Cc1cc(-c2cc(C)c(=O)n(C)c2)ccc1C1(N(C)C)CC1` [Compound I-60] came in with an IC50 of 143 nM.

In the case of `CCC(CC)(c1ccc(-c2cc(C)c(=O)n(C)c2)cc1OC)N1CCN(C)CC1` [Compound I-61], the midpoint of inhibition, the IC50, lay at 179 nM. The IC50 values of the last two compounds are within 1.5-fold of each other.

In turn, `COc1cc(-c2cc(C)c(=O)n(C)c2)c(OC)cc1CN1CCN(C)CC1` [Compound I-62] showed an IC50 of 181 nM. `COc1cc(-c2cc(C)c(=O)n(C)c2)cc(OC)c1CN1CCN(C)CC1` [Compound I-63] displayed an IC50 of 203 nM. The IC50 values of the last two compounds are within 1.5-fold of each other. In the case of `Cc1cc(-c2ccc(S(=O)(=O)N3CCNCC3)cc2)cn(C)c1=O` [Compound I-64], the IC50 was 211 nM. `COc1cc(-c2cc(C)c(=O)n(C)c2)ccc1S(=O)(=O)NCCN(C)C` [Compound I-65] came in with a concentration for half-maximal inhibition (IC50) of 213 nM. Compound `Cc1cc(-c2ccc(C3(N(C)C)CCC3)cc2)cn(C)c1=O` [Compound I-66] had an IC50 of 213 nM. This counts as sub-micromolar. In the case of `COc1cc(-c2cc(C)c(=O)n(C)c2)ccc1C1(N2CCN(C)CC2)CC1` [Compound I-67] it was 215 nM. The compound `Cc1cc(-c2cc(C)c(=O)n(C)c2)ccc1S(=O)(=O)NCCN(C)C` [Compound I-68] came in with an IC50 of 223 nM. In the case of `COc1cc(S(=O)(=O)N2CCN(C)CC2)c(OC)cc1-c1cc(C)c(=O)n(C)c1` [Compound I-70], the IC50 worked out at 237 nM. `CCc1cc(-c2cc(C)c(=O)n(C)c2)cc(OC)c1C(O)CC` (stereo not shown) [Compound I-71] returned a 50% inhibitory concentration (IC50) of 289 nM. Turning to `COc1cc(-c2cc(C)c(=O)n(C)c2)ccc1CN1C[C@H]2C[C@@H]1CN2C` [Compound I-72], the IC50 is 335 nM. The IC50 values of the last two compounds are within 1.5-fold of each other. For `Cc1cc(-c2ccc(C(=O)C3CCNCC3)cc2)cn(C)c1=O` [Compound I-73], half-maximal inhibition (IC50) required 361 nM. The IC50 values of the last two compounds are within 1.5-fold of each other. Turning to `COc1cc(-c2cc(C)c(=O)n(C)c2)ccc1S(=O)(=O)N1CC(O)C1` [Compound I-74], the IC50 was 371 nM. This IC50 and that of the compound before are within 1.5-fold of each other. With `Cc1cc(-c2cc(C)c(=O)n(C)c2)ccc1S(=O)(=O)N1CC(O)C1` [Compound I-75], the midpoint of inhibition, the IC50, lay at 393 nM. In the case of `COc1cc(-c2cc(C)c(=O)n(C)c2)ccc1C(=O)N1C[C@@H]2CC1CN2` [Compound I-76] it was 409 nM; in that of `COc1cc(-c2cc(C)c(=O)n(C)c2)ccc1C(=O)N1C[C@@H]2CC1CN2C` [Compound I-77], 418 nM. As to `CCOc1cc(-c2cc(C)c(=O)n(C)c2)ccc1CN1CC[N+](C)(CC)CC1` [Compound I-81], the midpoint of inhibition, the IC50, lay at 502 nM. The compound `COc1cc(-c2cc(C)c(=O)n(C)c2)ccc1S(=O)(=O)N1CCN(C)CC1` [Compound I-82] displayed an IC50 of 515 nM. As to `Cc1cc(-c2cc(C)c(=O)n(C)c2)ccc1S(=O)(=O)N1CCN(C)CC1` [Compound I-83], the IC50 stood at 521 nM. This IC50 and that of the compound before are within 1.5-fold of each other.

For `Cc1cc(-c2cc(C)c(=O)n(C)c2)ccc1C1(N2CCN(C)CC2)CC1` [Compound I-84], the IC50 was 618 nM. `Cc1cc(-c2ccc3c(c2)CCNC3)cn(C)c1=O` [Compound I-85] came in with a 50% inhibitory concentration (IC50) of 708 nM. Take `COc1cc(-c2cc(C)c(=O)n(C)c2)ccc1CN1CCN(C)C(C)C1` (stereo not shown) [Compound I-86]: 777 nM corresponded to half-maximal inhibition (IC50). Take `Cc1cc(-c2cccc(CN)c2)cn(C)c1=O` [Compound I-87]: the midpoint of inhibition, the IC50, lay at 849 nM. `Cc1cc(-c2ccc3c(c2)CNCC3)cn(C)c1=O` [Compound I-90]: the IC50 turned out to be 950 nM. The IC50 values of the last two compounds are within 1.5-fold of each other. With `Cc1cc(-c2cc(C)c(=O)n(C)c2)ccc1CN` [Compound I-92], the half-maximal inhibitory concentration (IC50) amounted to 1040 nM. `Cc1cc(-c2ccc(C3(N4CCN(C)CC4)CC3)cc2)cn(C)c1=O` [Compound I-95]: the IC50 stood at 1210 nM. `COc1cc(-c2cc(C)c(=O)n(C)c2)ccc1CN` [Compound I-96] had a 50% inhibitory concentration (IC50) of 1250 nM. The compound `Cc1cc(-c2cccc(C3CCCCN3)c2)cn(C)c1=O` (stereo not shown) [Compound I-98] registered an IC50 of 2360 nM.

`COc1cc(-c2cn(C)c(=O)c(C)c2C)cc(OC)c1CN1CC(O)C1` [Compound I-103] gave an IC50 of 37 nM. In turn, `COc1cc(-c2cn(C)c(=O)c(C)c2C)c(OC)cc1CN1CC(O)C1` [Compound I-104] returned an IC50 of 39 nM. Compound `Cc1c(-c2ccc3c(c2)CNC3)cn(C)c(=O)c1C` [Compound I-106] yielded a 50% inhibitory concentration (IC50) of 103 nM. The figure for `COCc1c(OC)cc(-c2cn(C)c(=O)c(C)c2C)cc1OC` [Compound I-107] is 137 nM. In turn, `COc1cc(-c2cn(C)c(=O)c(C)c2C)ccc1CN1C[C@@H]2CC1CN2C` [Compound I-108] had an IC50 of 152 nM. The IC50 values of the last two compounds are within 1.5-fold of each other. Take `COc1cc(-c2cn(C)c(=O)c(C)c2C)ccc1CN1C[C@@H]2CC1CN2` [Compound I-109]: the half-maximal inhibitory concentration (IC50) is 193 nM. `COc1cc(S(=O)(=O)N(C)CCN(C)C)c(OC)cc1-c1cn(C)c(=O)c(C)c1C` [Compound I-110] returned an IC50 of 197 nM. In the case of `COc1cc(-c2cn(C)c(=O)c(C)c2C)ccc1C1(N2CCN(C)CC2)CC1` [Compound I-111] it was 226 nM.

In the case of `Cc1cc(-c2cn(C)c(=O)c(C)c2C)ccc1C1(N2CCN(C)CC2)CC1` [Compound I-112], the IC50 was 320 nM.

Regarding `COc1cc(-c2cn(C)c(=O)c(C)c2C)ccc1CN1C[C@H]2C[C@@H]1CN2C` [Compound I-113], the half-maximal inhibitory concentration (IC50) was determined as 348 nM.

`Cc1c(-c2ccc(C(=O)C3CCNCC3)cc2)cn(C)c(=O)c1C` [Compound I-115] yielded an IC50 of 740 nM.

For the compound `Cc1c(-c2ccc3c(c2)CCNC3)cn(C)c(=O)c1C` [Compound I-116], the IC50 was determined as 744 nM. In the case of `Cc1cc(-c2cn(C)c(=O)c(C)c2C)ccc1C(=O)N1CCN(C)CC1` [Compound I-117] it was 1400 nM. For the compound `COc1cc(-c2cc(C)c(=O)n(C)c2C)cc(OC)c1CN1CC(O)C1` [Compound I-118], the IC50 came out at 10 nM. In turn, `COc1cc(-c2cc(C)c(=O)n(C)c2C)ccc1CN1CC(O)C1` [Compound I-119] had an IC50 of 55 nM. For `COc1cc(-c2cc(C)c(=O)n(C)c2C)ccc1C1(N(C)C)CCC1` [Compound I-121], the half-inhibitory concentration (IC50) amounted to 163 nM.
